Reference: PubChem BioAssay (NCI)
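Exposure lasted 48 hours, with cells grown in 96-well plates and compounds tested at five concentrations. Definition used: TGI = concentration required for complete inhibition of growth.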

How the values were obtained:
Test in all cases: inhibition of tumour cell growth, NCI panel, 48 h
SK-OV-3 ovarian = system: SK-OV-3 ovarian
HOP-92 NSCLC = system: HOP-92 NSCLC
HCT-116 colon = system: HCT-116 colon
PC-3 prostate = system: PC-3 prostate
NCI/ADR-RES ovarian = system: NCI/ADR-RES ovarian
OVCAR-8 ovarian = system: OVCAR-8 ovarian
HCT-15 colon = system: HCT-15 colon
KM12 colon = system: KM12 colon
SW-620 colon = system: SW-620 colon
DU-145 prostate = system: DU-145 prostate
SNB-75 CNS = system: SNB-75 CNS
MCF7 breast = system: MCF7 breast
CCRF-CEM leukemia = system: CCRF-CEM leukemia
UACC-257 melanoma = system: UACC-257 melanoma
MOLT-4 leukemia = system: MOLT-4 leukemia
U251 CNS = system: U251 CNS
NCI-H23 lung = system: NCI-H23 lung
SR leukemia = system: SR leukemia
K-562 leukemia = system: K-562 leukemia
MALME-3M melanoma = system: MALME-3M melanoma

| Compound | TGI (SK-OV-3 ovarian) [µM] | TGI (HOP-92 NSCLC) [µM] | TGI (HCT-116 colon) [µM] | TGI (PC-3 prostate) [µM] | TGI (NCI/ADR-RES ovarian) [µM] | TGI (OVCAR-8 ovarian) [µM] | TGI (HCT-15 colon) [µM] | TGI (KM12 colon) [µM] | TGI (SW-620 colon) [µM] | TGI (DU-145 prostate) [µM] | TGI (SNB-75 CNS) [µM] | TGI (MCF7 breast) [µM] | TGI (CCRF-CEM leukemia) [µM] | TGI (UACC-257 melanoma) [µM] | TGI (MOLT-4 leukemia) [µM] | TGI (U251 CNS) [µM] | TGI (NCI-H23 lung) [µM] | TGI (SR leukemia) [µM] | TGI (K-562 leukemia) [µM] | TGI (MALME-3M melanoma) [µM] |
| --- | --- | --- | --- | --- | --- | --- | --- | --- | --- | --- | --- | --- | --- | --- | --- | --- | --- | --- | --- | --- |
| C=C(Nc1nc2ccc(C)cc2s1)C(=O)C(CC)C(=O)C(CC)CC1C(=O)NC(=O)NC1=O (stereo unspecified) | > 100 | > 100 | > 100 | > 100 | > 100 | > 100 | > 100 | > 100 | > 100 | > 100 | > 100 | > 100 | > 100 | > 100 | > 100 | > 100 | > 100 | – | – | – |
| CC(C)=CC1CC(=[N+]=[N-])C(=O)C1(C)C (stereo unspecified) | > 100 | > 100 | > 100 | – | – | > 100 | > 100 | > 100 | > 100 | – | > 86.5 | – | > 83.7 | > 100 | > 100 | > 100 | > 100 | 44.4 | > 100 | > 100 |
| COC(=O)c1nsc(OC)c1Cl | > 100 | – | > 100 | > 100 | > 100 | > 100 | > 100 | > 100 | > 100 | > 100 | > 100 | > 100 | > 100 | > 100 | > 100 | > 100 | > 100 | – | > 100 | > 100 |
| N#Cc1c(-c2ccc(Cl)cc2)c(C#N)c(=O)n(NS(=O)(=O)c2ccccc2)c1O | 79 | 71.1 | 33.1 | 48.8 | 93 | > 100 | 62.3 | 77.8 | > 100 | – | > 100 | 42.9 | 88.6 | > 100 | 71.2 | > 100 | – | – | > 100 | > 100 |
| COc1ccc(OC)c(/C=C(/C#N)c2ccccc2)c1 | > 100 | 70.2 | > 100 | – | – | > 100 | > 100 | > 100 | > 100 | – | 32.8 | – | 62.1 | – | 57.7 | > 100 | > 100 | – | 13.8 | > 100 |
| CS(=O)(=O)c1ccc(-c2cc(-c3ccc(S(C)(=O)=O)cc3)[n+](-c3cc(-c4ccccc4)c([O-])c(-c4ccccc4)c3)c(-c3ccc(S(C)(=O)=O)cc3)c2)cc1 | – | – | > 100 | – | – | > 100 | > 100 | > 100 | > 100 | – | – | – | – | > 100 | > 100 | > 100 | > 100 | > 100 | > 100 | > 100 |
| COc1ccc(C(C#N)NNC(=O)Cc2ccccc2)cc1OC (stereo unspecified) | > 100 | > 100 | > 100 | – | – | > 100 | > 100 | > 100 | > 100 | – | > 100 | – | > 100 | > 100 | > 100 | > 100 | > 100 | > 100 | > 100 | > 100 |
| C=CN1C(=O)[C@H](Oc2ccccc2)[C@@H]1c1ccccc1 | 78.8 | – | > 100 | – | – | 83.6 | > 100 | > 100 | > 100 | – | 61.8 | – | > 100 | > 100 | 91.3 | > 100 | 60 | > 100 | > 100 | > 100 |
| CN(CCN(C)C(=O)CCn1cc(F)c(=O)[nH]c1=O)C(=O)CCn1cc(F)c(=O)[nH]c1=O | – | – | > 100 | – | – | > 100 | > 100 | > 100 | > 100 | – | > 100 | – | > 100 | – | > 100 | > 100 | > 100 | > 100 | > 100 | > 100 |
| CC(Oc1ccc(OCC2CCCCC2)cc1)C(=O)OCC(=O)c1ccc(-c2ccccc2)cc1 (stereo unspecified) | > 100 | – | > 100 | – | – | > 100 | > 100 | > 100 | – | – | > 100 | – | > 100 | > 100 | > 100 | > 100 | > 100 | – | > 100 | > 100 |
| Cc1nc2ccc(F)cc2c2c1CCN2c1ccc(Cl)cc1 | > 100 | – | 36.2 | 22.7 | 19.8 | 34.2 | > 100 | – | 54.8 | > 100 | > 100 | 26.4 | 31 | 13.8 | – | 71.8 | 48.2 | – | 13.4 | 26.9 |
| CN(C)/N=C1/CCC(C(F)(F)F)(C(F)(F)F)O1 | > 100 | 70.1 | 94 | > 100 | 69.6 | – | > 100 | 48.8 | > 100 | > 100 | 97.5 | – | 90.3 | – | > 100 | > 100 | 98.4 | > 100 | > 100 | 61.1 |
| COc1cccc(C2CC23C(=O)NC(=O)NC3=O)c1 (stereo unspecified) | > 100 | > 100 | > 100 | – | – | > 100 | > 100 | > 100 | > 100 | – | – | – | > 100 | > 100 | > 100 | > 100 | > 100 | > 100 | > 100 | > 100 |
| O=C(CSc1c2ccccc2nc2ccccc12)Nc1ccccc1-c1ccccc1NC(=O)CSc1c2ccccc2nc2ccccc12 | > 100 | 96.1 | > 100 | – | – | > 86.8 | 66.6 | > 62 | > 100 | – | > 100 | – | > 78.7 | 75.8 | > 54.4 | > 100 | 61.6 | > 31.6 | > 30.1 | > 91.3 |
| CCSC1=N/C(=C\c2ccc(N(C)C)cc2)C(Cl)=N1 | > 100 | > 100 | > 100 | > 100 | > 100 | > 100 | > 100 | > 100 | > 100 | > 100 | > 100 | > 100 | > 100 | > 100 | > 100 | > 100 | > 100 | – | – | > 100 |
| Cc1nn(C(=O)CC(=O)Nc2ccc(Cl)cc2)c(C)c1N=Nc1ccccc1C(=O)O | > 100 | – | > 100 | – | – | > 100 | > 100 | > 100 | > 100 | – | > 100 | – | > 100 | > 100 | > 100 | > 100 | > 100 | – | > 100 | > 100 |
| COC(=O)[C@@]1(C)/C(=N/NS(=O)(=O)c2ccc(C)cc2)CCC[C@@H]1C | > 100 | > 100 | > 100 | – | – | > 100 | 31.9 | > 100 | – | – | > 100 | – | > 100 | > 100 | > 100 | > 100 | > 100 | 43.6 | > 100 | > 100 |
| Cc1ccc(Cl)c2c(=O)c3ccc(N)cc3sc12 | – | – | 35.1 | 76.7 | 35 | 52.6 | 54.9 | 33.4 | – | > 100 | 37.8 | 55.4 | 50.4 | 90.7 | 50 | – | 97.4 | – | 48.6 | – |
| CCOC(=O)NNC(=O)NCCCCNC(=O)NNC(=O)OCC | > 100 | > 100 | > 100 | > 100 | > 100 | > 100 | > 100 | > 100 | > 100 | > 100 | > 100 | – | > 100 | > 100 | > 100 | > 100 | > 100 | – | > 100 | – |
| COC(=O)C(C(=O)Cc1ccccc1[N+](=O)[O-])C(=O)OC | > 100 | > 100 | > 100 | – | – | > 100 | > 100 | > 100 | > 100 | – | > 100 | – | > 100 | > 100 | > 100 | – | > 100 | > 100 | – | > 100 |
| CNCCCn1c2ccccc2c2c3c(c(-c4ccsc4)cc21)C(=O)NC3=O | 2.63 | 2.22 | 2.79 | 1.78 | 2.19 | 2.07 | 2.74 | – | 2.92 | 1.89 | 3.43 | – | 3.24 | 3.12 | > 100 | 3.71 | 1.74 | 0.349 | – | – |
| CCOC(=O)/C(=C/c1ccc(N(C)C)cc1)N(CC)CC | > 100 | > 100 | > 100 | – | – | > 100 | > 100 | > 100 | > 100 | – | – | – | 91.9 | > 100 | > 100 | > 100 | > 100 | > 100 | 65.8 | > 100 |
| CC(C)(C)OC/C=C(/CO)[C@@H]1C=C[C@H](O)C1 | > 100 | – | > 100 | > 100 | > 100 | – | > 100 | > 100 | > 100 | – | > 100 | > 100 | > 100 | > 100 | > 100 | > 100 | > 100 | – | > 100 | > 100 |
| CC1CN=C(N(C(=O)Nc2ccc(Cl)c(Cl)c2)c2ccccc2)S1 (stereo unspecified) | – | > 100 | > 100 | > 100 | > 100 | > 100 | > 100 | > 100 | > 100 | > 100 | > 100 | > 100 | > 100 | > 100 | > 100 | > 100 | > 100 | – | – | > 100 |
| CCOC1c2cc(C(C)C)c(O)c(O)c2[C@@]23CCCC(C)(C)C2C1OC3=O (stereo partly specified) | > 100 | – | > 100 | – | – | > 100 | > 100 | – | > 100 | – | > 100 | – | > 100 | > 100 | > 100 | > 100 | > 100 | > 100 | > 100 | > 100 |
| CCCCC/C=C1\CCC(CN(C)C)C1=O (stereo unspecified) | 27.4 | 27.1 | 25 | – | – | > 41.7 | 10 | 17 | 11.7 | – | 32.3 | – | 18.5 | 32.2 | 30.8 | 20.7 | 34.6 | 21.6 | 28.2 | 28.7 |
| O=S(=O)(c1ccccc1)N1N=C2c3ccccc3CCC[C@H]2C1c1ccccc1 (stereo partly specified) | > 100 | > 100 | > 100 | – | – | > 100 | > 100 | > 100 | > 100 | – | > 100 | – | > 100 | > 100 | > 100 | > 100 | > 100 | > 100 | > 100 | > 100 |
| CSc1ccsc1-c1sc(-c2cc(SC)c(-c3sc(-c4cc(SC)c(-c5sccc5SC)s4)cc3SC)s2)cc1SC | > 100 | > 100 | > 100 | > 100 | > 100 | > 100 | > 100 | > 100 | 69.7 | > 100 | – | > 100 | 27 | > 100 | > 100 | > 100 | > 100 | – | > 100 | 81.7 |
| CCOc1nnnc2nc[nH]c12 | > 100 | – | > 100 | > 100 | > 100 | > 100 | > 100 | > 100 | > 100 | > 100 | > 100 | > 100 | – | > 100 | > 100 | > 100 | > 100 | – | – | > 100 |
